Measurements: patent publication US11655232B2 (Celgene Corporation, priority 2003, dated 2023)
≈ marks a conversion by molar mass, not a printed value. Where “and” joins values, the source holds several entries; their conditions need not be identical. Identical values can stand only once. Entries after “also recorded” stand apart in the source; their conditions may differ. Marks after values point to notes of the source that are not given here. Each block holds one molecule with its values, some of them ahead of it.

What was measured:
[1] = Intrinsic dissolution (Woods apparatus); format: physicochemical; settings: for dissolution rates (estimated) / Final Form of undissolved solids after intrinsic dissolution (XRPD) / Intrinsic Dissolution #2 (rate): HCl buffer pH 1.8, 1% sodium lauryl sulfate; for Final Form of undissolved solids after intrinsic dissolution (XRPD) / Intrinsic Dissolution #1 (rate) / Intrinsic Dissolution #2 (rate): 37° C.; for Average Intrinsic Dissolution Rate: average of experiments #1 and #2; for Intrinsic Dissolution #1 (rate): experiment #1, 900 mL HCl buffer pH 1.8, 1% sodium lauryl sulfate; for Intrinsic Dissolution #1 (rate) / Intrinsic Dissolution #2 (rate): 50 rpm; for Intrinsic Dissolution #2 (rate): experiment #2
Description: Dissolution experiments were carried out in a VanKel VK6010-8 dissolution apparatus equipped with a VK650A heater/circulator. An intrinsic dissolution apparatus (Woods apparatus) was used. Samples were compressed at 1.5 metric tons (1000 psi) for 1 min using the Woods apparatus in a hydraulic press, giving a sample surface of 0.50 cm^2. […] The medium was degassed by vacuum filtration through a 0.22-μm nylon filter disk and maintained at 37° C. The apparatus was rotated at 50 rpm for each experiment. Aliquots were filtered immediately using 0.2-μm nylon syringe filters. In some cases, the undissolved solids were recovered and analyzed by X-ray powder diffraction (XRPD).
(§1) Diffracted radiation was detected by a NaI scintillation detector.

[2] = Moisture sorption/desorption; format: physicochemical
Description: Moisture sorption/desorption data were collected on a VTI SGA-100 moisture balance system. For sorption isotherms, a sorption range of 5 to 95% relative humidity (RH) and a desorption range of 95 to 5% RH in 10% RH increments was used for analysis. The sample was not dried prior to analysis. Equilibrium criteria used for analysis were less than 0.0100 weight percent change in 5 minutes with a maximum equilibration time of 3 hours if the weight criterion was not met. Data were not corrected for the initial moisture content of the samples.

[3] = Temperature/relative humidity stress storage; format: physicochemical; settings: about 85 days; room temperature/0% RH and 40° C./93% RH
[4] = Compression and grinding, form check by XRPD; format: physicochemical; settings: compressed into disks in Woods apparatus, 2 metric tons, ground gently
Description: as §1
Approximately 200 mg each of Forms A and B were compressed into disks in the Woods apparatus using 2 metric tons of pressure. The samples were subsequently scraped out, ground gently, and analyzed by XRPD. […] (See Table 7).

[5] = Interconversion slurry experiments
Description: Interconversion experiments were carried out by making slurries containing two forms in a saturated solvent. The slurries were agitated for approximately 7-20 days at ambient temperature. The insoluble solids were recovered by filtration and analyzed using XRPD.

[6] = Equilibrium solubility in dissolution medium; settings: for Final Form of solids remaining from solubility experiment (XRPD) / Concentration: HCl buffer pH 1.8, 1% sodium lauryl sulfate; for Final Form of solids remaining from solubility experiment (XRPD): final time point
Description: A solid sample of 400-450 mg was stirred in 50 mL of dissolution medium (HCl buffer, pH 1.8, with 1% sodium lauryl sulfate) using a mechanical stir rod. Aliquots were filtered using 0.2-μm nylon syringe filters and immediately diluted 1 mL→50 mL, then 5 mL→25 mL with dissolution medium in Class A glassware, a final dilution factor of 250.
Dissolution and solubility samples solutions were analyzed by a Beckman DU 640 single-beam spectrophotometer. A 1.000-cm quartz cuvette and an analysis wavelength of 228.40 nm were utilized. The detector was zeroed with a cuvette filled with dissolution medium.
XRPD analyses were carried out on a Shimadzu XRD-6000 X-ray powder diffractometer using Cu Kα radiation. The instrument is equipped with a fine focus X-ray tube. The tube power and amperage were set at 40 kV and 40 mA, respectively. The divergence and scattering slits were set at 1° and the receiving slit was set at 0.15 mm. Diffracted radiation was detected by a NaI scintillation detector. A theta-two theta continuous scan at 3°/min (0.4 sec/0.02° step) from 2.5 to 40°2θ was used. A silicon standard was analyzed each day to check the instrument alignment. Samples were packed in an aluminum holder with silicon insert.

Desolvation by heating = format: physicochemical; settings: about 150° C. for about five minutes
[7] = from 5 to 95% relative humidity

Compound: Nc1cccc2c1CN(C1CCC(=O)NC1=O)C2=O (single isomer, unassigned) [Form A, 3-(4-amino-1-oxo-1,3 dihydro-isoindol-2-yl)-piperidine-2,6-dione]
Cumulative Amount Dissolved per Unit Area ([1]; Experiment #1, 5 min): 5.76 mg/cm2
Cumulative Amount Dissolved per Unit Area ([1]; Experiment #1, 10 min): 7.73 mg/cm2
Cumulative Amount Dissolved per Unit Area ([1]; Experiment #1, 20 min): 11.31 mg/cm2
Cumulative Amount Dissolved per Unit Area ([1]; Experiment #1, 30 min): 15.59 mg/cm2
Cumulative Amount Dissolved per Unit Area ([1]; Experiment #1, 45 min): 21.98 mg/cm2
Cumulative Amount Dissolved per Unit Area ([1]; Experiment #1, 60 min): 27.11 mg/cm2
Cumulative Amount Dissolved per Unit Area ([1]; Experiment #1, 90 min): 34.17 mg/cm2
Cumulative Amount Dissolved per Unit Area ([1]; Experiment #2, 5 min): 4.50 mg/cm2
Cumulative Amount Dissolved per Unit Area ([1]; Experiment #2, 10 min): 5.22 mg/cm2
Cumulative Amount Dissolved per Unit Area ([1]; Experiment #2, 20 min): 7.54 mg/cm2
Cumulative Amount Dissolved per Unit Area ([1]; Experiment #2, 30 min): 11.46 mg/cm2
Cumulative Amount Dissolved per Unit Area ([1]; Experiment #2, 45 min): 15.01 mg/cm2
Cumulative Amount Dissolved per Unit Area ([1]; Experiment #2, 60 min): 18.38 mg/cm2
Cumulative Amount Dissolved per Unit Area ([1]; Experiment #2, 90 min): 24.38 mg/cm2
Cumulative Amount Dissolved per Unit Area ([1]; Experiment #2, 120 min): 30.35 mg/cm2
Cumulative Amount Dissolved per Unit Area ([1]; Experiment #2, 150 min): 35.26 mg/cm2
dissolution rates (estimated) [1]: 0.35 mg/cm²/min
Final Form of undissolved solids after intrinsic dissolution (XRPD) [1]: did not change; also recorded: does not indicate a form change
Average Intrinsic Dissolution Rate [1]: 0.29^a mg per cm^2 per minute
Intrinsic Dissolution #1 (rate) [1]: 0.35 mg per cm^2 per minute
Intrinsic Dissolution #2 (rate) [1]: 0.22 mg per cm^2 per minute and 0.22^a mg per cm^2 per minute
true intrinsic dissolution rate (believed) ([1]; judged from experiment #1, since #2 disk surface may have converted to Form E): ~0.35 mg per cm^2 per minute
hygroscopicity (summary) [2]: weakly or not hygroscopic
weight lost from start to finish ([2]; at 5% relative humidity after drying from 95% back down to 5%): about 0.003 % by weight
weight gain on moisture sorption [2, 7]: does not exhibit a significant weight gain
form after stress storage [3]: typically does not convert to a different form
Final Form after pressing (compression and grinding, XRPD) [4]: does not cause a form change
thermodynamic stability among anhydrous polymorphs (summary) [5]: most thermodynamically stable anhydrous polymorph
interconversion / stability in solvent system ([5]; acetone solvent system): can convert to Form C
interconversion / stability in solvent system ([5]; anhydrous solvent systems): tends to be stable
interconversion / stability in solvent system ([5]; aqueous solvent systems): can convert to Form B
interconversion ([5]; water systems, in the presence of Form E): tends to convert to Form E
Final Form of solids remaining from solubility experiment (XRPD) [6]: unstable in the medium, converting to Form E
Concentration ([6]; time point 7 min, 25° C.): 6000 µg/mL
Concentration ([6]; time point 15 min, 25° C.): 6110 µg/mL
Concentration ([6]; time point 30 min, 25° C.): 6200 µg/mL and 6160 µg/mL
Concentration ([6]; time point 60 min, 25° C.): 6100 µg/mL
Concentration ([6]; time point 90 min, 25° C.): 5460 µg/mL
Concentration ([6]; time point 150 min, 25° C.): 4700 µg/mL and 4730 µg/mL

Compound: Nc1cccc2c1CN(C1CCC(=O)NC1=O)C2=O (single isomer, unassigned) [Form B, 3-(4-amino-1-oxo-1,3 dihydro-isoindol-2-yl)-piperidine-2,6-dione]
Cumulative Amount Dissolved per Unit Area ([1]; Experiment #1, 5 min): 10.80^b mg/cm2
Cumulative Amount Dissolved per Unit Area ([1]; Experiment #1, 10 min): 6.85 mg/cm2
Cumulative Amount Dissolved per Unit Area ([1]; Experiment #1, 20 min): 10.25 mg/cm2
Cumulative Amount Dissolved per Unit Area ([1]; Experiment #1, 30 min): 14.35 mg/cm2
Cumulative Amount Dissolved per Unit Area ([1]; Experiment #1, 45 min): 20.57 mg/cm2
Cumulative Amount Dissolved per Unit Area ([1]; Experiment #1, 60 min): 25.70 mg/cm2
Cumulative Amount Dissolved per Unit Area ([1]; Experiment #1, 90 min): 34.34 mg/cm2
Cumulative Amount Dissolved per Unit Area ([1]; Experiment #2, 5 min): 5.04 mg/cm2
Cumulative Amount Dissolved per Unit Area ([1]; Experiment #2, 10 min): 6.12 mg/cm2
Cumulative Amount Dissolved per Unit Area ([1]; Experiment #2, 20 min): 7.73 mg/cm2
Cumulative Amount Dissolved per Unit Area ([1]; Experiment #2, 30 min): 12.72 mg/cm2
Cumulative Amount Dissolved per Unit Area ([1]; Experiment #2, 45 min): 17.33 mg/cm2
Cumulative Amount Dissolved per Unit Area ([1]; Experiment #2, 60 min): 21.93 mg/cm2
Cumulative Amount Dissolved per Unit Area ([1]; Experiment #2, 90 min): 31.64 mg/cm2
Cumulative Amount Dissolved per Unit Area ([1]; Experiment #2, 120 min): 41.31 mg/cm2
Cumulative Amount Dissolved per Unit Area ([1]; Experiment #2, 150 min): 49.54 mg/cm2
dissolution rates (estimated) [1]: 0.34 mg/cm²/min
Final Form of undissolved solids after intrinsic dissolution (XRPD) [1]: did not change
Average Intrinsic Dissolution Rate [1]: 0.34 mg per cm^2 per minute
Intrinsic Dissolution #1 (rate) [1]: 0.35 mg per cm^2 per minute
Intrinsic Dissolution #2 (rate) [1]: 0.32 mg per cm^2 per minute
weight gain on moisture sorption [2, 7]: does not exhibit a significant weight gain
form after stress storage [3]: does not convert to a different form
Final Form after pressing (compression and grinding, XRPD) [4]: does not cause a form change
interconversion / stability in solvent system ([5]; THF solvent system): typically converts to Form A
interconversion / stability in solvent system ([5]; acetone solvent system): typically converts to Form C
interconversion / stability in solvent system ([5]; anhydrous solvent systems): converts to other forms
interconversion ([5]; in the presence of water): can convert to Form E
Final Form of solids remaining from solubility experiment (XRPD) [6]: Form B
Solubility ([6]; HCl buffer, pH 1.8, with 1% sodium lauryl sulfate, 25° C., estimated): 5800 µg/mL (≈ 22.4 mM)
Concentration stabilized ([6]; final three time points (180, 420, 650 min)): 5600 to 5700 µg/mL
stability in water (suggested by remaining solids) ([6]; slurry in dissolution medium up to 650 min): good stability in water
Concentration ([6]; time point 7 min, 25° C.): 1630 µg/mL
Concentration ([6]; time point 15 min, 25° C.): 2140 µg/mL
Concentration ([6]; time point 30 min, 25° C.): 2330 µg/mL
Concentration ([6]; time point 60 min, 25° C.): 2940 µg/mL
Concentration ([6]; time point 90 min, 25° C.): 3300 µg/mL and 3340 µg/mL
Concentration ([6]; time point 180 min, 25° C.): 5670 µg/mL
Concentration ([6]; time point 420 min, 25° C.): 5760 µg/mL
Concentration ([6]; time point 650 min, 25° C.): 5610 µg/mL

Compound: Nc1cccc2c1CN(C1CCC(=O)NC1=O)C2=O (stereo not shown) [Form C, 3-(4-amino-1-oxo-1,3 dihydro-isoindol-2-yl)-piperidine-2,6-dione]
hygroscopicity (summary) [2]: not hygroscopic below about 85% RH
weight loss ([2]; at 95% relative humidity): about 6.03%
weight gain on moisture sorption ([2]; from 5 to 85% relative humidity): does not exhibit a significant weight gain
form after heating (desolvation) (Desolvation by heating): will typically convert to Form A
interconversion / stability in solvent system ([5]; THF solvent system): typically converts to Form A
interconversion / stability in solvent system ([5]; acetone solvent system): most stable form
interconversion / stability in solvent system ([5]; aqueous solvent systems): typically converts to Form E

Now from value to molecule, other results behind:

hygroscopicity (summary) [2]: either weakly or not hygroscopic
form after heating (desolvation) (Desolvation by heating): will typically convert to Form A
interconversion / stability in solvent system ([5]; THF solvent system): capable of converting to Form A
Compound: Nc1cccc2c1CN(C1CCC(=O)NC1=O)C2=O (stereo not shown) [Form D, 3-(4-amino-1-oxo-1,3 dihydro-isoindol-2-yl)-piperidine-2,6-dione]
weight gain on moisture sorption [2, 7]: does not exhibit a significant weight gain

interconversion ([5]; slurried in water with either Forms A or B, about 14 days): can convert to Form E
Compound: Nc1cccc2c1CN(C1CCC(=O)NC1=O)C2=O (stereo not shown) [Form H, 3-(4-amino-1-oxo-1,3 dihydro-isoindol-2-yl)-piperidine-2,6-dione]
